In PubChem BioAssay (NCI):
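Tested at 5 concentrations; 48 h exposure; 96-well plates; endpoints linearly interpolated, else capped at highest concentration. At the GI50, growth is halved. The concentration for full growth arrest is given as TGI.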

How the values were obtained:
Test in all cases: NCI tumour cell line growth inhibition, 48 h
A549 NSCLC = tested on: A549 NSCLC
COLO 205 colon = tested on: COLO 205 colon
KM12 colon = tested on: KM12 colon
MDA-MB-231 breast = tested on: MDA-MB-231 breast
NCI-H23 lung = tested on: NCI-H23 lung
NCI/ADR-RES ovarian = tested on: NCI/ADR-RES ovarian
SF-268 CNS = tested on: SF-268 CNS
SF-539 CNS = tested on: SF-539 CNS
SNB-75 CNS = tested on: SNB-75 CNS
UO-31 renal = tested on: UO-31 renal

| Compound | GI50 (A549 NSCLC) [µM] | TGI (A549 NSCLC) [µM] | GI50 (COLO 205 colon) [µM] | TGI (COLO 205 colon) [µM] | GI50 (KM12 colon) [µM] | TGI (KM12 colon) [µM] | GI50 (MDA-MB-231 breast) [µM] | TGI (MDA-MB-231 breast) [µM] | GI50 (NCI-H23 lung) [µM] | TGI (NCI-H23 lung) [µM] | GI50 (NCI/ADR-RES ovarian) [µM] | TGI (NCI/ADR-RES ovarian) [µM] | GI50 (SF-268 CNS) [µM] | TGI (SF-268 CNS) [µM] | GI50 (SF-539 CNS) [µM] | TGI (SF-539 CNS) [µM] | GI50 (SNB-75 CNS) [µM] | TGI (SNB-75 CNS) [µM] | GI50 (UO-31 renal) [µM] | TGI (UO-31 renal) [µM] |
| --- | --- | --- | --- | --- | --- | --- | --- | --- | --- | --- | --- | --- | --- | --- | --- | --- | --- | --- | --- | --- |
| COC1=CC(c2ccc[nH]2)=N/C1=C\c1[nH]c(C)c(C(=O)OC(C)C)c1C | 0.0505 | 1.05 | 0.0733 | 1.46 | 0.0439 | 1.8 | 0.0252 | 0.274 | 0.0702 | 1.74 | 0.0367 | 1.42 | 0.0608 | 5.25 | 0.069 | 1.53 | 0.0805 | 1.96 | 0.0494 | 0.175 |
| Cn1cc(C2=C(c3cn(C)c4ncccc34)C(=O)NC2=O)c2ccccc21 | 10.1 | > 25 | 5.23 | 13 | 8.59 | > 25 | 12.2 | > 25 | 14.3 | > 25 | 11.5 | > 25 | 9.13 | > 25 | 5.35 | 14.3 | 0.669 | > 23.6 | 5.68 | > 19.8 |
| Cc1cc(I)cc(CN(C)CCCCN2CCCCC2)c1O | 27.4 | 96.8 | 9.87 | 24.9 | 13.6 | 31.3 | 16.3 | 43 | 24.7 | > 100 | 19.5 | 73.2 | 12.5 | 27.3 | 12 | 25.1 | 15 | 32.8 | 14.2 | 36.6 |
| COc1cc(-c2nn(-c3ccc(NC(=O)c4ccc(Cl)c(C(F)(F)F)c4)cc3)cc2-c2ccncc2)ccc1Cl | 4.94 | > 100 | 2.05 | 4.37 | 1.5 | 4.84 | 1.6 | 6.09 | 3.06 | > 100 | 3.63 | > 100 | 4.03 | > 100 | 1.83 | 8.6 | 1.23 | 6.83 | 1.65 | 5.46 |
| COc1ccc2c(c1)/C(=C/c1c(C)nc3sc(C)nn13)C(=O)N2 | 7.74 | > 100 | 0.614 | 4.96 | 0.42 | > 54.6 | 7.59 | > 100 | 3.33 | > 65.5 | 1.83 | 13.6 | 3.06 | > 50.5 | 3.29 | > 50.7 | 1.58 | 7.14 | 5.23 | > 100 |
| Cc1nc2ccccc2c(N)c1-c1cc(C)c2c(C)nc3ccccc3c2n1 | 0.243 | 0.681 | 0.817 | 2.25 | 0.785 | 2.15 | 0.298 | 0.904 | 1.56 | 3.24 | 1.34 | 3.15 | 0.628 | 2.08 | 1.31 | 2.59 | 1.52 | 3.16 | 0.78 | 2.26 |
| CCC(CO)Nc1nc2ccc(Cl)cc2c2ccccc12 (stereo not given) | 6.05 | 20.4 | 11.9 | 25.6 | 5.3 | 17.1 | 4.9 | 15.9 | 12.3 | 25.9 | 5.95 | 21.4 | 10.7 | 23.4 | 10.4 | 22.2 | 4.38 | 18 | 4.01 | 16.3 |
| CCN(CCO)CC1CCCC2CCCCC21 (stereo not given) | – | > 100 | – | > 100 | – | > 100 | – | > 100 | – | > 100 | – | > 100 | – | > 100 | – | > 100 | – | > 100 | – | > 100 |
| CSc1nc2c(c(=O)[nH]1)N=C1c3ccccc3C(=O)C1C(c1ccccc1)N2 (stereo not given) | 6.98 | > 100 | 3.53 | > 100 | 2.27 | 37.5 | 4.09 | > 100 | 5.82 | > 100 | 4.54 | 32.1 | 4.55 | > 100 | 2.84 | 17.9 | 1.27 | 8.78 | 5.23 | > 100 |
| O=C(Nc1ccccc1OC(F)(F)F)Nc1n[nH]c2ccccc12 | 15.7 | 60.1 | 71.8 | > 100 | 23.4 | > 100 | 17.9 | > 100 | 50 | > 100 | 44.2 | > 100 | 16.2 | > 100 | 30.5 | > 100 | 17.5 | 49.8 | 17.4 | > 100 |
| CC/C=C\CCC/C=C1/C(=O)C=C[C@@H]1C/C=C\CCCC(=O)OC | 11.1 | 28.4 | 4.1 | 12.5 | 2.46 | 6.39 | 4.23 | 14.9 | 3.23 | 10.8 | 3.45 | 18 | 4.79 | 22.1 | 3.49 | 12.9 | 13.7 | 28.5 | 2.04 | 5.15 |
| Cc1ccc2c(=O)cc(-c3ccc(F)cc3)[nH]c2n1 | – | > 100 | – | 47.9 | – | > 100 | – | > 100 | – | > 100 | – | 86.9 | – | > 100 | – | > 100 | – | 49.6 | – | > 100 |
